Among the data in ChEMBL document CHEMBL4616662, “Cyperane-Type and Related (Nor)Sesquiterpenoids from the Root Bark of Acanthopanax gracilistylus and Their Inhibitory Effects on Nitric Oxide Production” (J Nat Prod, 2020) are Activity and IC50 values, retold here.

The IC50 is the midpoint of a concentration-inhibition curve.

Data set [1] relates to RAW264.7. The data set can be described thus: Cytotoxicity against LPS-stimulated mouse RAW264.7 cells at 6.25 to 100 uM by MTT assay. Format: cell-based. To be noted: raw264.7, 100 µM.
For data set [2], the system named is RAW264.7. The data set can be described thus: Antiinflammatory activity in mouse RAW264.7 cells assessed as inhibition of LPS-induced nitirc oxide production pretreated followed by LPS challenge and measured after 24 hrs by Griess assay. Format: functional, cell-based. On the technique in general: Griess reagent forms a coloured azo dye with nitrite.

For the molecule `CC(=O)[C@@H]1CC[C@@]2(C)CCC(=O)O[C@@]2(C(C)=O)C1`, the Activity result in the data set with RAW264.7 [1] is recorded as “Non-Toxic”. For the same molecule, the IC50 in the data set with RAW264.7 [2] was 2.6 µM. For `CC(=O)[C@]12C=C([C@@](C)(O)CO)CC[C@@]1(C)CC[C@H]2O`, the Activity result in the data set on RAW264.7 [1] was “Non-Toxic”. Also, in the data set with RAW264.7 [2], the IC50 turned out to be 6.8 µM.

Regarding `CC(=O)[C@@]12C=C([C@](C)(O)CO)CC[C@]1(C)CC[C@@H]2O`, the Activity result in the data set with RAW264.7 [1] is “Non-Toxic”. Besides, the IC50 in the data set with RAW264.7 [2] was 7.7 µM. With `COC(=O)[C@@H](N)CCCNC(=N)N[N+](=O)[O-]` [L-NAME], the IC50 with RAW264.7 [2] amounted to 58.4 µM.
